# Measured values published in patent US20060111289A1, “Compositions and methods of using Alpha-fetoprotein growth inhibitory peptides” (Serometrix, LLC,, priority 2004, published 2006).
# Like-named read-outs stand apart in the source and are kept apart here. Where a SMILES comes first, the peptide text is derived from it.
# Assays:
# 60 cancer cell lines = test: NCI screen of 60 cancer cell lines, 2 day versus 6-day sulforhodamine assay; type: cell-based, human; details: nine different cancer cell types
# Text: These findings detailed the in vitro results of the GIP challenges against 60 different cell culture lines representing a variety of human cancers.
# [1] = tested on: human kidney tumor cell line
# HCC-299 = HCC-299 (colon, AC); 2-Day Assay; Conc. 10^−1 Molar
# Colo-205 = Colo-205 (colon, AC)
# OVCAR-3 = OVCAR-3 (ovary, AC); 2-Day Assay; Conc. 10^−2 Molar
# IGROV1 = IGROV1 (ovary, AC); 2-Day Assay; Conc. 10^−1 Molar
# MCF-7 = MCF-7 (breast, AC); 2-Day Assay; Conc. 10^−2 Molar
# MDA-MB-231 = MDA-MB-231 (breast, AC); 6-Day Assay; Conc. 10^−7 only Molar
# MDA-MB-435 = MDA-MB-435 (breast, AC); 2-Day Assay; Conc. 10^−1 Molar
# T-47D = T-47D (breast, AC)
# PC-3 = PC-3 (prostate, AC); 2-Day Assay; Conc. 10^−1 Molar
# DU-145 = DU-145 (prostate, AC); 2-Day Assay; Conc. 10^−1 Molar
# NCI-H226 = NCI-H226 (non-small cell lung, CA)
# NCI-H460 = NCI-H460 (non-small cell lung, CA); 2-Day Assay; Conc. 10^−2 Molar
# SK-MeL-5 = SK-MeL-5 (melanoma, squamous)
# UACC-257 = UACC-257 (melanoma, squamous); 2-Day Assay; Conc. 10^−2 Molar
# SF-539 = SF-539 (central nervous system, CA)
# U-251 = U-251 (central nervous system, CA); 2-Day Assay; Conc. 10^−2 Molar
# RXF-393 = RXF-393 (kidney, renal CA); 2-Day Assay; Conc. 10^−1 Molar
# ACHN = ACHN (kidney, renal CA); 2-Day Assay; Conc. 10^−2 Molar
# K-562 = K-562 (white blood cell, leukemia); 6-Day Assay; Conc. 10^−7 Molar
# Molt-4 = Molt-4 (white blood cell, leukemia); 2-Day Assay; Conc. 10^−2 Molar
# CCRF-CEM = CCRF-CEM (white blood cell, leukemia)
smiles,measurement,setting,value
CC[C@H](C)[C@H](NC(=O)[C@H](CS)NC(=O)[C@H](CC(C)C)NC(=O)[C@H](Cc1c[nH]cn1)NC(=O)CNC(=O)[C@@H](NC(=O)[C@@H](NC(=O)[C@@H](NC(=O)[C@H](CC(=O)O)NC(=O)[C@H](C)NC(=O)[C@H](C)NC(=O)CNC(=O)[C@H](CCC(=O)O)NC(=O)CNC(=O)[C@H](CS)NC(=O)[C@H](C)NC(=O)[C@H](CC(C)C)NC(=O)[C@H](CC(C)C)NC(=O)[C@H](CCCCN)NC(=O)[C@H](CC(=O)O)NC(=O)[C@H](CCC(=O)O)NC(=O)[C@H](CO)NC(=O)[C@@H](N)CC(C)C)[C@@H](C)CC)[C@@H](C)CC)[C@@H](C)CC)C(=O)N[C@@H](CCCNC(=N)N)C(=O)N[C@@H](Cc1c[nH]cn1)C(=O)N[C@@H](CCC(=O)O)C(=O)N[C@@H](CCSC)C(=O)N[C@H](C(=O)N1CCC[C@H]1C(=O)N[C@H](C(=O)N[C@@H](CC(N)=O)C(=O)N1CCC[C@H]1C(=O)NCC(=O)N[C@H](C(=O)O)C(C)C)C(C)C)[C@@H](C)O [P149] (H-LSEDKLLACGEGAADIIIGHLCIRHEMTPVNPGV-OH),Number of the 60 cancer cell lines against which the peptide appeared cytostatic (not cytotoxic),60 cancer cell lines,38
same,% Inhibition Of Activity: Kidney tumor growth,[1],70%
same,% Growth Inhibition,HCC-299,20%
same,% Growth Inhibition,"Colo-205; 2-Day Assay, Conc. 10^−2 Molar",10%
same,% Growth Inhibition,"Colo-205; 6-Day Assay, Conc. 10^−5 Molar",10%
same,% Growth Inhibition,OVCAR-3,20%
same,% Growth Inhibition,IGROV1,10%
same,% Growth Inhibition,MCF-7,20%
same,% Growth Inhibition,MDA-MB-231,80%
same,% Growth Inhibition,MDA-MB-435,20%
same,% Growth Inhibition,"T-47D; 2-Day Assay, Conc. 10^−2 Molar",10%
same,% Growth Inhibition,"T-47D; 6-Day Assay, Conc. 10^−5 Molar",25%
same,% Growth Inhibition,PC-3,5%
same,% Growth Inhibition,DU-145,10%
same,% Growth Inhibition,"NCI-H226; 2-Day Assay, Conc. 10^−2 Molar",5%
same,% Growth Inhibition,"NCI-H226; 6-Day Assay, Conc. 10^−5 Molar",5-10%
same,% Growth Inhibition,NCI-H460,30%
same,% Growth Inhibition,"SK-MeL-5; 2-Day Assay, Conc. 10^−2 Molar",5%
same,% Growth Inhibition,"SK-MeL-5; 6-Day Assay, Conc. 10^−5 Molar",10%
same,% Growth Inhibition,UACC-257,20%
same,% Growth Inhibition,"SF-539; 2-Day Assay, Conc. 10^−2 Molar",10%
same,% Growth Inhibition,"SF-539; 6-Day Assay, Conc. 10^−5 Molar",15-20%
same,% Growth Inhibition,U-251,15%
same,% Growth Inhibition,RXF-393,30%
same,% Growth Inhibition,ACHN,20%
same,% Growth Inhibition,K-562,45%
same,% Growth Inhibition,Molt-4,5%
same,% Growth Inhibition,"CCRF-CEM; 2-Day Assay, Conc. 10^−2 Molar",5%
same,% Growth Inhibition,"CCRF-CEM; 6-Day Assay, Conc. 10^−5 Molar",5-10%
